The values below come from patent US12492202B2, “Macrocyclic PAD4 inhibitors useful as immunosuppressant” (BRISTOL-MYERS SQUIBB COMPANY, priority 2020, dated 2025).

Chain of human PAD4 (hPAD4) (Q9UM07 whole entry): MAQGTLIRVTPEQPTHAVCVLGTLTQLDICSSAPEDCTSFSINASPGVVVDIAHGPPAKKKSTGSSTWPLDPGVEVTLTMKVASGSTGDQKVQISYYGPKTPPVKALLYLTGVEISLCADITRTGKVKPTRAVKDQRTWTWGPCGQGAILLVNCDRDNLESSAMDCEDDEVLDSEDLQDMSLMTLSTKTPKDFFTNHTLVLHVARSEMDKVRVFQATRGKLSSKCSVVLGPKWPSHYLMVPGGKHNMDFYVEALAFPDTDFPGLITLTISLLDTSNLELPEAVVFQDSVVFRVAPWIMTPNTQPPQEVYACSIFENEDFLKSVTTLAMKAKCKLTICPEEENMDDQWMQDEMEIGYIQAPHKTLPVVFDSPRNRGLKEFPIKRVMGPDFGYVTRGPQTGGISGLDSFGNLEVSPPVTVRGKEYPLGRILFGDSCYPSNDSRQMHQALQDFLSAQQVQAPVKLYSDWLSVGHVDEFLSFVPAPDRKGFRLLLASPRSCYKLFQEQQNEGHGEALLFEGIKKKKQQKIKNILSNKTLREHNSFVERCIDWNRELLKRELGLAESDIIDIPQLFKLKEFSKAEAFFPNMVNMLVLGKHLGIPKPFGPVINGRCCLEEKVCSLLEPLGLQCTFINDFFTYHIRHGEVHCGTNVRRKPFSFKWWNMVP

This assay has as its target human PAD4 (hPAD4) (Homo sapiens (Human), UniProt Q9UM07). Description: RFMS Human PAD4 Functional Assay. The settings on record: rapid-fire mass spectrum (RFMS) assay; 5 nM hPAD4 enzyme, 250 μM BAEE, 30 min preincubation at 37° C. In kind it is biochemical.
Description: RFMS Human PAD4 Functional Assay: Compounds were solubilized in 100% DMSO to achieve a 10 mM compound concentration. Compound stock solutions were stored at RT. A series of dilutions were prepared in DMSO and mixed 8 times with 20 μL mixing volume. Final top concentration of compound in the assay is 50 μM. Final assay conditions were as follows: • Reaction volume: 26 μl • Assay buffer: 25 mM hepes, pH 7.5, 5 mM NaCl, 1 mM DTT, 0.2 mg/ml BSA, 0.01% CHAPS, 50 μM Calcium, and 5 μM TPEN • Final concentrations: 5 nM hPAD4 enzyme, 250 μM BAEE, and 0.5% DMSO • Total incubation time: 30 mins compound and enzyme preincubation at 37° C., 90 min enzyme/substrate reaction, 30 min reaction with phenyl glyoxal at 37° C. • Stop solution: 40 μl 5% TCA in ACN 0.13 μL of compound solution was added to 13 μL of 10 nM PAD4 in assay buffer. After 30 min 13 μl of 500 μM of BAEE was added in 25 mM hepes, pH 7.5, 5 mM NaCl, 1 mM DTT, 0.2 mg/ml BSA, 0.01% CHAPS, 50 μM Calcium, 5 μM TPEN was added and the reaction incubated for 90 min at 37° C. The enzymatic reaction was quenched by addition of 15 μl of 6.1N TCA, 100% Final Concentration is 20%, 35 μl of 8.5 mM phenyl glyoxal (final concentration 4 mM) is then added and the reaction is incubated for 30 min at 37° C. After 30 minutes the plates are spun down to remove all precipitate. The enzyme reaction was quenched with an equal volume of methanol containing internal standard (modified citrulline). Samples were loaded onto the Rapid Fire RF300 system (Agilent) wherein they were first sipped for 1000 ms and then directly loaded to a C18 separations cartridge using a mixture of acetonitrile containing 0.01% formic acid for 3000 ms desalting. The flow rate of the mobile phase was 1.5 ml/min. Once the samples were eluted from the cartridge, a mobile phase of acetonitrile containing 0.01% formic acid was used to move the samples into the mass spectrometer for 4000 ms at a flow rate of 1.25 ml/min/Sciex API5500 triple quadrupole mass spectrometer (Applied Biosystems) equipped with ESI was used to analyze the peptidyl citrulline and internal standard ions. MRM transition of product and internal standard were monitored at m/z 424.5 to 350.4 and m/z 293 to 247 respectively. The dwell time for each transition was set at 200 ms, and the ESI voltage was used at 5500 with a source temperature of 400° C. Extracted ion peaks for each transition were integrated using the Rapid Fire Integrator software. Peak area of analyte was normalized with internal standard).
As usually defined, the IC50 is the concentration that gives 50% inhibition. The low end stands for inhibition by little substance, the high end for a need for much substance. Compound `COc1cc(C(=O)N2C[C@H]3CC[C@@H]2[C@@H]3N)cc2nc3n(c12)Cc1cccc(c1)[C@H](O)[C@H](O)CCCCn1c-3cc2cccnc21` (relative stereo) [Example 47, ((1R,4R,7R)-7-amino-2-azabicyclo[2.2.1]heptan-2-yl)((5S,6R)-5,6-dihydroxy-27-methoxy-1^1H,2^1H-1,2(2,1)-dipyrrolo[2,3-b]pyridina-4(1,3)-benzenacyclodecaphane-25-yl)methanone] gave a half-maximal inhibitory concentration (IC50) of 88 nM.

As to `COc1cc(C(=O)N2C[C@H]3CC[C@@H]2[C@@H]3N)cc2nc3n(c12)Cc1cccc(c1)[C@H](O)[C@H](O)CCCCn1c-3cc2cccnc21` (relative stereo) [Example 48, ((1R,4R,7R)-7-amino-2-azabicyclo[2.2.1]heptan-2-yl)((5S,6R)-5,6-dihydroxy-27-methoxy-1^1H,2^1H-1,2(2,1)-dipyrrolo[2,3-b]pyridina-4(1,3)-benzenacyclodecaphane-25-yl)methanone], the concentration for half-maximal inhibition (IC50) came to 92 nM.

`COc1cc(C(=O)N2C[C@H]3CC[C@@H]2[C@@H]3N)cc2nc3n(c12)CC1CC(=O)N(C1)c1ccccc1CCCCn1c-3cc2cccnc21` (single isomer, unassigned) [Example 37] came in with an IC50 of 19 nM.

For the compound `COc1cc(C(=O)N2C[C@H]3CC[C@@H]2[C@@H]3N)cc2nc3n(c12)CC1CC(=O)N(C1)c1ccccc1CCCCn1c-3cc2cccnc21` (single isomer, unassigned) [Example 38], the 50% inhibitory concentration (IC50) was 78 nM.

Compound `COc1cc(C(=O)N2C[C@H]3CC[C@@H]2[C@@H]3N)cc2nc3n(c12)Cc1cccc(c1)[C@H](O)[C@H](O)CCCCn1c-3cc2cccnc21` (single isomer, unassigned) [Example 45] yielded a concentration for half-maximal inhibition (IC50) of 30.6 nM.

For the compound `COc1cc(C(=O)N2C[C@H]3CC[C@@H]2[C@@H]3N)cc2nc3n(c12)Cc1cccc(c1)[C@H](O)[C@H](O)CCCCn1c-3cc2cccnc21` (single isomer, unassigned) [Example 46], the midpoint of inhibition, the IC50, lay at 44.8 nM.

As to `COc1cc(C(=O)N2C[C@H](N)C[C@@H](F)C2)cc2nc3n(c12)Cc1cccc(c1)[C@H](O)[C@H](O)CCCCn1c-3cc2cccnc21` (single isomer, unassigned) [Example 49], the concentration for half-maximal inhibition (IC50) came to 292 nM.

`COc1cc(C(=O)N2C[C@H](N)C[C@@H](F)C2)cc2nc3n(c12)Cc1cccc(c1)[C@H](O)[C@H](O)CCCCn1c-3cc2cccnc21` (single isomer, unassigned) [Example 50]: the half-maximal inhibitory concentration (IC50) came to 837 nM.

The compound `COc1cc(C(=O)N2CC3CCC2[C@@H]3N)cc2nc3n(c12)Cc1cccc(c1)/C=C\CCCCn1c-3cc2cccnc21` (stereo in doubt) [Example 41, ((1R,4R,7R)-7-Amino-2-azabicyclo[2.2.1]heptan-2-yl)((Z)-27-methoxy-11H,21H-1,2(2,1)-dipyrrolo[2,3-b]pyridina-4(1,3)-benzenacyclodecaphan-5-en-25-yl)methanone] gave a 50% inhibitory concentration (IC50) of 44.9 nM.

As to `COc1cc(C(=O)N2CC3CCC2[C@@H]3N)cc2nc3n(c12)Cc1cnn(c1)CCCCCn1c-3cc2ccccc21` (stereo partly drawn) [Example 1, ((7R)-7-Amino-2-azabicyclo[2.2.1]heptan-2-yl)((Z)-2^7-methoxy-1^1H,2^1H,4^1H-2(2,1)-benzo[d]imidazola-1(2,1)-indola-4(4,1)-pyrazolacyclononaphane-2^5-yl)methanone], the IC50 stood at 255 nM.

As for `COc1cc(C(=O)N2CC3CCC2[C@@H]3N)cc2nc3n(c12)Cc1cnn(c1)CCCCCCn1c-3cc2cccnc21` (stereo partly drawn) [Example 2, ((7R)-7-Amino-2-azabicyclo[2.2.1]heptan-2-yl)((Z)-2^7-methoxy-1^1H,2^1H,4^1H-1,2(2,1)-dipyrrolo[2,3-b]pyridina-4(4,1)-pyrazolacyclodecaphane-2^5-yl)methanone], the IC50 is 1370 nM.

The compound `COc1cc(C(=O)N2C[C@H](N)C[C@@H](F)C2)cc2nc3n(c12)Cc1cnn(c1)-c1ccccc1OCCCn1c-3cc2ccccc21` [Example 3, ((3R,5R)-3-Amino-5-fluoropiperidin-1-yl)((Z)-2^7-methoxy-1^1H,2^1H,4^1H-6-oxa-2(2,1)-benzo[d]imidazola-1(2,1)-indola-4(4,1)-pyrazola-5(1,2)-benzenacyclononaphane-2^5-yl)methanone] returned an IC50 of 19 nM.

The compound `COc1cc(C(=O)N2CC3CCC2[C@@H]3N)cc2nc3n(c12)Cc1cnn(c1)CCCCCCn1c-3cc2ccccc21` (stereo partly drawn) [Example 4, ((7R)-7-amino-2-azabicyclo[2.2.1]heptan-2-yl)((Z)-2^7-methoxy-1^1H,2^1H,4^1H-2(2,1)-benzo[d]imidazola-1(2,1)-indola-4(4,1)-pyrazolacyclodecaphane-2^5-yl)methanone] gave a half-maximal inhibitory concentration (IC50) of 24 nM.

For `COc1cc(C(=O)N2C[C@H](N)C[C@@H](F)C2)cc2nc3n(c12)Cc1cnn(c1)CCCCCCCn1c-3cc2ccccc21` [Example 5, ((3R,5R)-3-amino-5-fluoropiperidin-1-yl)((Z)-2^7-methoxy-1^1H,2^1H,4^1H-2(2,1)-benzo[d]imidazola-1(2,1)-indola-4(4,1)-pyrazolacycloundecaphane-2^5-yl)methanone], the half-inhibitory concentration (IC50) was determined as 37 nM.

With `COc1cc(C(=O)N2CC3CCC2[C@@H]3N)cc2nc3n(c12)Cc1cnn(c1)CCCCCCCn1c-3cc2ccccc21` (stereo partly drawn) [Example 6, ((7R)-7-amino-2-azabicyclo[2.2.1]heptan-2-yl)((Z)-2^7-methoxy-1^1H,2^1H,4^1H-2(2,1)-benzo[d]imidazola-1(2,1)-indola-4(4,1)-pyrazolacycloundecaphane-2^5-yl)methanone], half-maximal inhibition (IC50) required 31 nM.

For `COc1cc(C(=O)N2C[C@H](N)C[C@@H](F)C2)cc2nc3n(c12)Cc1cnn(c1)CCCCCCn1c-3cc2cccnc21` [Example 8, ((3R,5R)-3-amino-5-fluoropiperidin-1-yl)((Z)-2^7-methoxy-1^1H,2^1H,4^1H-1,2(2,1)-dipyrrolo[2,3-b]pyridina-4(4,1)-pyrazolacyclodecaphane-2^5-yl)methanone], the IC50 was determined as 277 nM.

The compound `COc1cc(C(=O)N2C[C@H](N)C[C@@H](F)C2)cc2nc3n(c12)Cc1cnn(c1)CCCCCCCn1c-3cc2cccnc21` [Example 9, ((3R,5R)-3-amino-5-fluoropiperidin-1-yl)((Z)-2^7-methoxy-1^1H,2^1H,4^1H-1,2(2,1)-dipyrrolo[2,3-b]pyridina-4(4,1)-pyrazolacycloundecaphane-2^5-yl)methanone] registered a half-maximal inhibitory concentration (IC50) of 612 nM.

Regarding `COc1cc(C(=O)N2CC3CCC2[C@@H]3N)cc2nc3n(c12)Cc1cnn(c1)CCCCCCCn1c-3cc2cccnc21` (stereo partly drawn) [Example 10, ((7R)-7-amino-2-azabicyclo[2.2.1]heptan-2-yl)((Z)-2^7-methoxy-1^1H,2^1H,4^1H-1,2(2,1)-dipyrrolo[2,3-b]pyridina-4(4,1)-pyrazolacycloundecaphane-2^5-yl)methanone], the IC50 amounted to 137 nM.

`COc1cc(C(=O)N2CCC[C@@H](N)C2)cc2nc3n(c12)Cc1cnn(c1)CCCCCCn1c-3cc2cccnc21` [Example 11, ((R)-3-aminopiperidin-1-yl)((Z)-2^7-methoxy-1^1H,2^1H,4^1H-1,2(2,1)-dipyrrolo[2,3-b]pyridina-4(4,1)-pyrazolacyclodecaphane-2^5-yl)methanone] displayed a half-inhibitory concentration (IC50) of 18800 nM.

`COc1cc(C(=O)N2CC3CCC2[C@@H]3N)cc2nc3n(c12)Cc1cnn(c1)CCCCCCn1c-3cc2ccccc21` (stereo partly drawn) [Example 12, ((7R)-7-amino-2-azabicyclo[2.2.1]heptan-2-yl)((E)-2^7-methoxy-1^1H,2^1H,4^1H-2(2,1)-benzo[d]imidazola-1(2,1)-indola-4(3,1)-pyrazolacyclodecaphane-2^5-yl)methanone] yielded a half-maximal inhibitory concentration (IC50) of 47 nM.

In turn, `COc1cc(C(=O)N2C[C@H](N)C[C@@H](F)C2)cc2nc3n(c12)Cc1cnn(c1)CCCCCCn1c-3cc2ccccc21` [Example 13, ((3R,5R)-3-amino-5-fluoropiperidin-1-yl)((E)-2^7-methoxy-1^1H,2^1H,4^1H-2(2,1)-benzo[d]imidazola-1(2,1)-indola-4(3,1)-pyrazolacyclodecaphane-2^5-yl) methanone] yielded an IC50 of 66 nM.

`COc1cc(C(=O)N2CC3CCC2[C@@H]3N)cc2nc3n(c12)Cc1cnn(c1)-c1ccccc1OCCCn1c-3cc2ccccc21` (stereo partly drawn) [Example 14, ((7R)-7-amino-2-azabicyclo[2.2.1]heptan-2-yl)((Z)-2^7-methoxy-1^1H,2^1H,4^1H-6-oxa-2(2,1)-benzo[d]imidazola-1(2,1)-indola-4(4,1)-pyrazola-5(1,2)-benzenacyclononaphane-2^5-yl) methanone] came in with a half-inhibitory concentration (IC50) of 11 nM.

As to `COc1cc(C(=O)N2C[C@H](N)C[C@@H](F)C2)cc2nc3n(c12)Cc1cnn(c1)-c1ccccc1OCCCn1c-3cc2cccnc21` [Example 15, ((3R,5R)-3-amino-5-fluoropiperidin-1-yl)((Z)-2^7-methoxy-1^1H,2^1H,4^1H-6-oxa-1,2(2,1)-dipyrrolo[2,3-b]pyridina-4(4,1)-pyrazola-5(1,2)-benzenacyclononaphane-2^5-yl)methanone], the midpoint of inhibition, the IC50, lay at 40 nM.

With `COc1cc(C(=O)N2CC3CCC2[C@@H]3N)cc2nc3n(c12)Cc1cnn(c1)-c1ccccc1OCCCn1c-3cc2cccnc21` (stereo partly drawn) [Example 16, ((7R)-7-amino-2-azabicyclo[2.2.1]heptan-2-yl)((Z)-2^7-methoxy-1^1H,2^1H,4^1H-6-oxa-1,2(2,1)-dipyrrolo[2,3-b]pyridina-4(4,1)-pyrazola-5(1,2)-benzenacyclononaphane-2^5-yl)methanone], the concentration for half-maximal inhibition (IC50) turned out to be 15 nM.

The compound `COc1cc(C(=O)N2CC3CCC2[C@@H]3N)cc2nc3n(c12)Cc1ccn(n1)-c1ccccc1OCCCn1c-3cc2cccnc21` (stereo partly drawn) [Example 17, ((7R)-7-amino-2-azabicyclo[2.2.1]heptan-2-yl)((E)-2^7-methoxy-1^1H,2^1H,4^1H-6-oxa-1,2(2,1)-dipyrrolo[2,3-b]pyridina-4(3,1)-pyrazola-5(1,2)-benzenacyclononaphane-2^5-yl) methanone] gave a concentration for half-maximal inhibition (IC50) of 11 nM.

`COc1cc(C(=O)N2C[C@H](N)C[C@@H](F)C2)cc2nc3n(c12)Cc1ccn(n1)-c1ccccc1OCCCn1c-3cc2cccnc21` [Example 18, ((3R,5R)-3-amino-5-fluoropiperidin-1-yl)((E)-2^7-methoxy-1^1H,2^1H,4^1H-6-oxa-1,2(2,1)-dipyrrolo[2,3-b]pyridina-4(3,1)-pyrazola-5(1,2)-benzenacyclononaphane-2^5-yl)methanone] had an IC50 of 9 nM.
